Assay results reported in patent publication US9096598B2 (Merck Sharp & Dohme Corp., priority 2011, dated 2015).

Assays:
JAK3 = biological target: T1, JAK3 (Homo sapiens, UniProt P52333); assay: Jak Biochemical HTRF Assay (JAK3); conditions: recombinant purified GST-tagged catalytic domain, [ATP] 2.9 μM, values given as range classes
T1 construct: recombinant purified GST-tagged catalytic domain for each enzyme; purchased Invitrogen M4290
Experimental: (§1) Jak Biochemical HTRF Assay Protocol
(§2) The ability of compounds to inhibit the activity of JAK1, JAK2, JAK3, and Tyk2 was measured using a recombinant purified GST-tagged catalytic domain for each enzyme (Invitrogen JAK1 #M4290, JAK2 #M4290, JAK3 #M4290, Tyk2 #M4290) in an HTRF format biochemical assay. The reactions employed a common peptide substrate, LCB-EQEDEPEGDYFEWLW-NH2 (in-house). The basic assay protocol is as follows: First, 250 nL of diluted compounds in DMSO were dispensed into the wells of a dry 384-well Black plate (Greiner #781076) using a Labcyte Echo 555 acoustic dispenser. Subsequent reagent additions employed an Agilent Bravo. Next, 18 μL of 1.11× enzyme and 1.11× substrate in 1× assay buffer (Invitrogen kinase buffer #PV3189, 2 mM DTT, 0.05% BSA) were added to the wells and shaken and then preincubated for 30 minutes at room temperature to allow compound binding to equilibrate. After equilibration, 2 μL of 10×ATP in 1× assay buffer was added to initiate the kinase reaction and the plates were shaken and then incubated at room temperature for 120 minutes. At the end of the incubation, 20 μL of 2× stop buffer (streptavidin-Dylight 650 (Thermo #84547B/100 mL), Eu-tagged pY20 antibody (Perkin Elmer #AD0067), EDTA, HEPES, and Triton) was added to quench the reaction. Plates were shaken and centrifuged and then incubated 60 minutes at room temperature and then read on a Perkin Elmer Envision (λex=337 nm, λem=665 and 615 nm, TRF delay time=20 μs). HTRF signal=10,000*665 nm reading/615 nm reading. After normalization to untreated controls, the percent inhibition of the HTRF signal at each compound concentration was calculated. The plot of percent inhibition versus the log of compound concentration was fit with a 4-parameter dose response equation to calculate IC50 values.
(§3) Final reaction conditions were:
(§4) Examples of the instant invention were evaluated in JAK2 and JAK3 in vitro binding assays. Table 13 tabulates the biological data disclosed for the instant invention as a range of JAK2 and JAK3 IC50 values (A: IC50≦10 nM; B: 10 nM>IC50≦500 nM C: IC50>500 nM).

JAK2 = biological target: T2, JAK2 (Homo sapiens, UniProt O60674); assay: Jak Biochemical HTRF Assay (JAK2); conditions: recombinant purified GST-tagged catalytic domain, [ATP] 8.5 μM, values given as range classes
T2 construct: recombinant purified GST-tagged catalytic domain for each enzyme; purchased Invitrogen M4290
Experimental: as §1, §2, §3, §4

T1 sequence (P52333 822-1111 limits assumed): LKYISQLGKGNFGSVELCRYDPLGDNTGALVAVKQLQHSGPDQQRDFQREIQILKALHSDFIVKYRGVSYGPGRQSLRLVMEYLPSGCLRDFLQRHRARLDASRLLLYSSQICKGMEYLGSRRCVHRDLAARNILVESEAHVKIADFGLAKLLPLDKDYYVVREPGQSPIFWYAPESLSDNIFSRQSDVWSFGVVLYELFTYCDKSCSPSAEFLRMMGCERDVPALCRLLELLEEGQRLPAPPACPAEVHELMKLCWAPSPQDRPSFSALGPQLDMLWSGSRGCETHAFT
T2 sequence (O60674 849-1124 limits assumed): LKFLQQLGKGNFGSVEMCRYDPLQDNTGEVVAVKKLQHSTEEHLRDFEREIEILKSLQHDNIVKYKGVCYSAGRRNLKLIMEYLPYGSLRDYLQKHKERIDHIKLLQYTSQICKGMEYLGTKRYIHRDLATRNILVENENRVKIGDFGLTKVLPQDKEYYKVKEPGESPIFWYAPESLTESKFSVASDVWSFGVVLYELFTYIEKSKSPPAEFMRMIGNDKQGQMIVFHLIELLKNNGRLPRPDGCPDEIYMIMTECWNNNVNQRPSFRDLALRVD

SMILES	IC50 (JAK3)	IC50 (JAK2)
CC(C)[C@H](Nc1cncc(-c2c[nH]c3ncc(OCCN(C)C)cc23)c1)C(=O)NCC(F)(F)F [Example 2-13, N~2~-(5-{5-[2-(dimethylamino)ethoxy]-1H-pyrrolo[2,3-b]pyridin-3-yl}pyridin-3-yl)-N-(2,2,2-trifluoroethyl)valinamide]	10 to 500 nM	> 500 nM
CC(C)[C@@H](Nc1cnnc(-c2c[nH]c3ncc(C(N)=O)cc23)n1)C(=O)NCC(F)(F)F [Example 1-18, 3-[5-({(1R)-2-methyl-1-[(2,2,2-trifluoroethyl)carbamoyl]propyl}amino)-1,2,4-triazin-3-yl]-1H-pyrrolo[2,3-b]pyridine-5-carboxamide]	≤ 10 nM	10 to 500 nM
CC(C)[C@@H](Nc1cncc(-c2c[nH]c3ncc(NS(C)(=O)=O)cc23)c1)C(=O)NCC(F)(F)F [Example 5-5, N^2-(5-{5-[(methylsulfonyl)amino]-1H-pyrrolo[2,3-b]pyridin-3-yl}pyridin-3-yl)-N-(2,2,2-trifluoroethyl)-D-valinamide]	10 to 500 nM	10 to 500 nM
CC(C)(Nc1cncc(-c2c[nH]c3ncc(F)cc23)c1)C(=O)NCC(F)(F)F [Example 1-43, N~2~-[5-(5-fluoro-1H-pyrrolo[2,3-b]pyridin-3-yl)pyridin-3-yl]-2-methyl-N-(2,2,2-trifluoroethyl)alaninamide]	≤ 10 nM	10 to 500 nM
CC(C)(Nc1cncc(-c2c[nH]c3ncc(C#N)cc23)c1)C(=O)NCC(F)(F)F [Example 1-44, N~2~-[5-(5-cyano-1H-pyrrolo[2,3-b]pyridin-3-yl)pyridin-3-yl]-2-methyl-N-(2,2,2-trifluoroethyl)alaninamide]	≤ 10 nM	10 to 500 nM
CC(C)[C@@H](Nc1cncc(-c2c[nH]c3ncc(C(=O)N4CCC4)cc23)c1)C(=O)NCC(F)(F)F [Example 3-6, N~2~-{5-[5-(azetidin-1-ylcarbonyl)-1H-pyrrolo[2,3-b]pyridin-3-yl]pyridin-3-yl}-N-(2,2,2-trifluoroethyl)-D-valinamide]	≤ 10 nM	10 to 500 nM
CC(C)[C@H](Nc1cncc(-c2c[nH]c3ncc(NS(C)(=O)=O)cc23)c1)C(=O)NCC(F)(F)F [Example 5-4, N^2-(5-{5-[(methylsulfonyl)amino]-1H-pyrrolo[2,3-b]pyridin-3-yl}pyridin-3-yl)-N-(2,2,2-trifluoroethyl)-L-valinamide]	10 to 500 nM	> 500 nM
CC(C)(Nc1cnnc(-c2c[nH]c3ncc(C(N)=O)cc23)n1)C(=O)NCC(F)(F)F [Example 1-13, 3-[5-({1,1-dimethyl-2-oxo-2-[(2,2,2-trifluoroethyl)amino]ethyl}amino)-1,2,4-triazin-3-yl]-1H-pyrrolo[2,3-b]pyridine-5-carboxamide]	≤ 10 nM	10 to 500 nM
COCCOc1cnc2[nH]cc(-c3cncc(NC(C(=O)NCC(F)(F)F)C(C)C)c3)c2c1 (stereo not drawn) [Example 2-2]	≤ 10 nM	10 to 500 nM
CC(C)(Nc1cncc(-c2c[nH]c3ncc(Cl)cc23)c1)C(=O)NCC(F)(F)F [Example 1-27, N~2~-[5-(5-chloro-1H-pyrrolo[2,3-b]pyridin-3-yl)pyridin-3-yl]-2-methyl-N-(2,2,2-trifluoroethyl)alaninamide]	≤ 10 nM	10 to 500 nM
CNC(=O)c1cnc2[nH]cc(-c3cncc(N[C@@H](C(=O)NCC(F)(F)F)C(C)C)c3)c2c1 [Example 3-8, N-methyl-3-[5-({(1R)-2-methyl-1-[(2,2,2-trifluoroethyl)carbamoyl]propyl}amino)pyridin-3-yl]-1H-pyrrolo[2,3-b]pyridine-5-carboxamide]	≤ 10 nM	10 to 500 nM
CC1c2ncc(C(F)(F)F)n2CCN1c1cnnc(-c2c[nH]c3ncc(C(N)=O)cc23)n1 (stereo not drawn) [Example 1-15, 3-{5-[8-methyl-3-(trifluoromethyl)-5,6-dihydroimidazo[1,2-a]pyrazin-7(8H)-yl]-1,2,4-triazin-3-yl}-1H-pyrrolo[2,3-b]pyridine-5-carboxamide]	≤ 10 nM	10 to 500 nM
COCC(=O)Nc1cnc2[nH]cc(-c3cncc(N[C@H](C(=O)NCC(F)(F)F)C(C)C)c3)c2c1 [Example 5-8, N~2~-(5-{5-[(methoxyacetyl)amino]-1H-pyrrolo[2,3-b]pyridin-3-yl}pyridin-3-yl)-N-(2,2,2-trifluoroethyl)valinamide]	≤ 10 nM	10 to 500 nM
COc1cnc2[nH]cc(-c3nncc(N[C@@H](C(=O)NCC(F)(F)F)C(C)C)n3)c2c1 [Example 1-20, N~2~-[3-(5-methoxy-1H-pyrrolo[2,3-b]pylidin-3-yl)-1,2,4-triazin-5-yl]-N-(2,2,2-trifluoroethyl)-D-valinamide]	≤ 10 nM	10 to 500 nM
CC(C)[C@H](Nc1cncc(-c2c[nH]c3ncc(OCCN4CCN(C)CC4)cc23)c1)C(=O)NCC(F)(F)F [Example 2-17, N~2~-(5-{5-[2-(4-methylpiperazin-1-yl)ethoxy]-1H-pyrrolo[2,3-b]pyridin-3-yl}pyridin-3-yl)-N-(2,2,2-trifluoroethyl)valinamide]	≤ 10 nM	10 to 500 nM
CC(CO)NC(=O)c1cnc2[nH]cc(-c3cncc(N[C@@H](C(=O)NCC(F)(F)F)C(C)C)c3)c2c1 (stereo partly drawn) [Example 3-4, N-(2-hydroxy-1-methylethyl)-3-[5-({(1R)-2-methyl-1-[(2,2,2-trifluoroethyl)carbamoyl]propyl}amino)pyridin-3-yl]-1H-pyrrolo[2,3-b]pyridine-5-carboxamide]	≤ 10 nM	≤ 10 nM
CC(C)[C@H](Nc1cncc(-c2c[nH]c3ncc(OC4CCCC4)cc23)c1)C(=O)NCC(F)(F)F [Example 2-5, N~2~-{5-[5-(cyclopentyloxy)-1H-pyrrolo[2,3-b]pyridin-3-yl]pyridin-3-yl}-N-(2,2,2-trifluoroethyl)valinamide]	≤ 10 nM	10 to 500 nM

Results, then the molecule that gave them:

IC50 (JAK3)	IC50 (JAK2)	SMILES
≤ 10 nM	10 to 500 nM	CC(C)[C@@H](Nc1cncc(-c2c[nH]c3ncc(COC4CCN(C(=O)OC(C)(C)C)CC4)cc23)c1)C(=O)NCC(F)(F)F [Example 9-6, tert-butyl 4-({3-[5-({(1R)-2-methyl-1-[(2,2,2-trifluoroethy)carbamoyl]propyl}amino)pyridin-3-yl]-1H-pyrrolo[2,3-b]pyridin-5-yl}methoxy)piperidine-1-carboxylate]
≤ 10 nM	10 to 500 nM	CC(C)[C@H](Nc1cncc(-c2c[nH]c3ncc(CNC(=O)C4CC4)cc23)c1)C(=O)NCC(F)(F)F [Example 10-6, N~2~-[5-(5-{[(cyclopropylcarbonyl)amino]methyl}-1H-pyrrolo[2,3-b]pyridin-3-yl)pyridin-3-yl]-N-(2,2,2-trifluoroethyl)valinamide]
≤ 10 nM	10 to 500 nM	C/C=C/C(=O)NCc1cnc2[nH]cc(-c3cncc(N[C@H](C(=O)NCC(F)(F)F)C(C)C)c3)c2c1 [Example 10-4, N~2~-[5-(5-{[(2E)-but-2-enoylamino]methyl}-1H-pyrrolo[2,3-b]pyridin-3-yl)pyridin-3-yl]-N-(2,2,2-trifluoroethyl)valinamide]
10 to 500 nM	10 to 500 nM	CC(C)[C@H](Nc1cncc(-c2c[nH]c3ncc(-c4cnn(C)c4)cc23)c1)C(=O)NCC(F)(F)F [Example 8-2, N^2-{5-[5-(1-methyl-1H-pyrazol-4-yl)-1H-pyrrolo[2,3-b]pyridin-3-yl]pyridin-3-yl}-N-(2,2,2-trifluoroethyl)-L-valinamide]
10 to 500 nM	10 to 500 nM	CCOC(=O)Nc1cnc2[nH]cc(-c3cncc(NC(C(=O)NCC(F)(F)F)C(C)C)c3)c2c1 (stereo not drawn) [Example 7-2, ethyl {3-[5-({2-methyl-1-[(2,2,2-trifluoroethyl)carbamoyl]propyl}amino)pyridin-3-yl]-1H-pyrrolo[2,3-b]pyridin-5-yl}carbamate]
10 to 500 nM	10 to 500 nM	COC(=O)Nc1cnc2[nH]cc(-c3cncc(NC(C(=O)NCC(F)(F)F)C(C)C)c3)c2c1 (stereo not drawn) [Example 7-1, Methyl {3-[5-({3-methyl-1-oxo-1-[(2,2,2-trifluoroethyl)amino]butan-2-yl}amino)pyridin-3-yl]-1H-pyrrolo[2,3-b]pyridin-5-yl}carbamate]
10 to 500 nM	10 to 500 nM	CC(C)OC(=O)Nc1cnc2[nH]cc(-c3cncc(NC(C(=O)NCC(F)(F)F)C(C)C)c3)c2c1 (stereo not drawn) [Example 7-3, 1-methylethyl {3-[5-({2-methyl-1-[(2,2,2-trifluoroethyl)carbamoyl]propyl}amino)pyridin-3-yl]-1H-pyrrolo[2,3-b]pyridin-5-yl}carbamate]
